According to patent US11091486B2, “Process for the preparation of pyrazolo[1,5-a]pyrimidines and salts thereof” (Array BioPharma Inc., priority 2016, dated 2021):

Key:
Type in all cases: physicochemical
[1] = Thermodynamic solubility of prepared salts
Procedure: Thermodynamic solubility studies were carried out as follows: 10 mg of prepared salts were suspended in pH 1, 4.5, 6.8 and un-buffered water (300 μL). The pH of the slurries was measured and adjusted accordingly using either 0.2M HCl solution or 0.2M sodium hydroxide solution. The slurries were agitated for 24 hours at ambient temperature using an incubator shaker.

[2] = Dynamic vapor sorption (DVS); conditions: post-DVS XRPD
Procedure: Approximately, 10 mg of sample was placed into a mesh vapor sorption balance pan and loaded into a DVS-1 dynamic vapor sorption balance by Surface Measurement Systems. The sample was subjected to a ramping profile from 40-90% relative humidity (RH) at 10% increments, maintaining the sample at each step until a stable weight had been achieved (99.5% step completion). After completion of the sorption cycle, the sample was dried using the same procedure to 0% RH and then a second sorption cycle back to 40% RH. The weight change during the sorption/desorption cycles were plotted, allowing for the hygroscopic nature of the sample to be determined. XRPD analysis was then carried out on any solid retained.

[3] = 1-week stability tests (40° C./75% RH, 80° C., ambient light), XRPD and UPLC
Source text: Compound 1 (Form I) was subjected to various different environmental conditions to assess stability.

[4] = Salt disproportionation studies; conditions: deionized water, 24 h at ambient temperature
Procedure: Salt disproportionation studies were carried out as follows: 20 mg of prepared salts were weighed into a vial and 0.5 mL of deionized water was added. The samples were then agitated for 24 h at ambient temperature. The pH of the samples was taken pre- and post-agitation. Any solids recovered were submitted for XRPD analysis to determine any changes to form.

[5] = Hydration screen in acetone/water mixtures; conditions: 24 hr
Procedure: Hydration screen was carried out as follows: 10 mg of prepared salts were suspended in several acetone/water mixtures of various water activities (low: aw=0.281, medium: aw=0.776 and high: aw=0.919) and agitated at ambient temperatures for 24 hr. Any recovered solids were submitted for XRPD analysis to determine any changes to form.

[6] = Gravimetric vapor sorption (GVS)
Procedure: Approximately 10-20 mg of sample was placed into a mesh vapor sorption balance pan and loaded into an IGASorp Moisture Sorption Analyzer balance by Hiden Analytical. […] After completion of the sorption cycle, the sample was dried using the same procedure to 0% RH, and finally taken back to the starting point of 40% RH. The weight change during the sorption/desorption cycles were plotted, allowing for the hygroscopic nature of the sample to be determined.

[7] = medium water activity (aw=0.776)

| Compound | Thermodynamic solubility in words ([1]; pH 1) | Solid recovered from thermodynamic solubility slurry (XRPD) ([1]; pH 4.5) | Thermodynamic solubility in words ([1]; pH 4.5) | Solid recovered from thermodynamic solubility slurry (XRPD) ([1]; pH 6.8) | Thermodynamic solubility in words ([1]; pH 6.8) | Solid recovered from thermodynamic solubility slurry (XRPD) ([1]; unbuffered water) | Thermodynamic solubility in words ([1]; unbuffered water) | 1-week stability test: change in purity (UPLC) ([3]; 40° C./75% RH) | 1-week stability test: change in purity (UPLC) ([3]; 80° C.) | 1-week stability test: change in purity (UPLC) ([3]; ambient light) | Salt disproportionation: recovered material by XRPD [4] | Hydration study: recovered solid by XRPD ([5]; high water activity (aw=0.919)) | Hydration study: recovered solid by XRPD ([5]; low water activity (aw=0.281)) | Hydration study: recovered solid by XRPD [5, 7] | also measured |
| --- | --- | --- | --- | --- | --- | --- | --- | --- | --- | --- | --- | --- | --- | --- | --- |
| C[C@@H]1CCc2ncc(F)cc2[C@H]2CCCN2c2ccn3ncc(c3n2)C(=O)N1.O=C(O)CC(O)(CC(=O)O)C(=O)O [Compound 1 citrate] | high solubility | Compound 1 citrate | lower solubility | poorly crystalline free base | lower solubility | Compound 1 citrate | highly soluble | no change to purity | no change to purity | no change to purity | poorly crystalline citrate salt | poorly crystalline citrate salt | poorly crystalline citrate salt | unknown form | Solid recovered from thermodynamic solubility slurry (XRPD) ([1]; pH 1): poorly crystalline solids; Crystalline form by XRPD after exposure to DVS humidity conditions [2]: no changes in crystalline form; 1-week stability test: change to form (XRPD) ([3]; 40° C./75% RH): no change to form; 1-week stability test: change to form (XRPD) ([3]; 80° C.): no change to form; 1-week stability test: change to form (XRPD) ([3]; ambient light): no change to form |
| CS(=O)(=O)O.C[C@@H]1CCc2ncc(F)cc2[C@H]2CCCN2c2ccn3ncc(c3n2)C(=O)N1 [Compound 1 mesylate] | moderately soluble | mesylate salt | moderately soluble | free base | low solubility | free base | moderately soluble | no change to purity | no change to purity | no change to purity | no change to form | free base | a mixture of free base and salt | mesylate salt | Hygroscopicity, mass uptake by GVS ([6]; at 90% RH): about 32%; Crystalline form by XRPD after exposure to GVS humidity conditions ([6]; post-GVS XRPD): desolvate and become the mesylate form seen in the salt screen |
